Measurements taken from ChEMBL document CHEMBL5584237, “Design, synthesis, biological evaluation, and in silico studies of novel pyridopyridine derivatives as anticancer candidates targeting FMS kinase” (Eur J Med Chem, 2024).

Legend:
[1] = target: T1, Macrophage colony-stimulating factor 1 receptor (Homo sapiens, UniProt P07333); test: Inhibition of FMS (unknown origin) using myelin basic protein as substrate measured after 40 mins in presence of [gamma-33P]-ATP by scintillation counting method
[2] = Cytotoxicity against human WI-38 cells assessed as reduction in cell growth measured after 48 hrs by MTT assay; assay type: toxicity, cell-based
HepG2 = test: cells; settings: Homo sapiens, HepG2, 48 h
Description: Antiproliferative activity against human HepG2 cells assessed as cell growth inhibition measured after 48 hrs by MTT assay

[3] = Cytotoxicity against human HS27 cells assessed as reduction in cell growth measured after 48 hrs by MTT assay; assay type: toxicity, cell-based
Hep 3B2 [4] = test: cells; settings: Homo sapiens, Hep3B, 48 h
[5] = target: T1, Macrophage colony-stimulating factor 1 receptor; test: Inhibition of NanoLuc-fused FMS (unknown origin) transfected in HEK293 cells by NanoBRET assay; assay type: cell-based
[6] = target: Voltage-gated inwardly rectifying potassium channel KCNH2 (Homo sapiens, UniProt Q12809); test: Inhibition of fluorescence tracer red binding to human ERG measured after 3 hrs by fluorescence polarization assay
NCI-H460 = test: Antiproliferative activity against human NCI-H460 cells assessed as cell growth inhibition; assay type: functional
LOX IMVI = test: Antiproliferative activity against human LOX IMVI cells assessed as cell growth inhibition; assay type: functional
K562 = test: Antiproliferative activity against human K562 cells assessed as cell growth inhibition; assay type: functional
A549 = test: Antiproliferative activity against human A549 cells assessed as cell growth inhibition; assay type: functional
786-0 = test: Antiproliferative activity against human 786-0 cells assessed as cell growth inhibition; assay type: functional
M14 = test: Antiproliferative activity against human M14 cells assessed as cell growth inhibition; assay type: functional
MOLT-4 = test: Antiproliferative activity against human MOLT-4 cells assessed as cell growth inhibition; assay type: functional
HCT-116 = test: Antiproliferative activity against human HCT-116 cells assessed as cell growth inhibition; assay type: functional
SF-539 = test: Antiproliferative activity against human SF-539 cells assessed as cell growth inhibition; assay type: functional
RXF 393 = test: Antiproliferative activity against human RXF 393 cells assessed as cell growth inhibition; assay type: functional
CCRF-CEM = test: Antiproliferative activity against human CCRF-CEM cells assessed as cell growth inhibition; assay type: functional
MDA-MB-468 = test: Antiproliferative activity against human MDA-MB-468 cells assessed as cell growth inhibition; assay type: functional
OVCAR-4 = test: Antiproliferative activity against human OVCAR-4 cells assessed as cell growth inhibition; assay type: functional
MCF7 = test: Antiproliferative activity against human MCF7 cells assessed as cell growth inhibition; assay type: functional
HCT-15 = test: Antiproliferative activity against human HCT-15 cells assessed as cell growth inhibition; assay type: functional
SW-620 = test: Antiproliferative activity against human SW-620 cells assessed as cell growth inhibition; assay type: functional
MDA-MB-435 = test: Antiproliferative activity against human MDA-MB-435 cells assessed as cell growth inhibition; assay type: functional
MDA-MB-231 = test: Antiproliferative activity against human MDA-MB-231 cells assessed as cell growth inhibition; assay type: functional
SK-MEL-28 = test: Antiproliferative activity against human SK-MEL-28 cells assessed as cell growth inhibition; assay type: functional
Hs-578T = test: Antiproliferative activity against human Hs-578T cells assessed as cell growth inhibition; assay type: functional
BMDM = test: Inhibition of CSF-1-induced C57BL6 mouse BMDM cell growth preincubated for 1 hr followed by CSF-1 addition and measured after 5 hrs by alamar blue assay
SF-295 = test: Antiproliferative activity against human SF-295 cells assessed as cell growth inhibition; assay type: functional
PC-3 = test: Antiproliferative activity against human PC-3 cells assessed as cell growth inhibition; assay type: functional
DU-145 = test: Antiproliferative activity against human DU-145 cells assessed as cell growth inhibition; assay type: functional
OVCAR-3 = test: Antiproliferative activity against human OVCAR-3 cells assessed as cell growth inhibition; assay type: functional
HT-29 = test: Antiproliferative activity against human HT-29 cells assessed as cell growth inhibition; assay type: functional
SR = test: Antiproliferative activity against human SR cells assessed as cell growth inhibition; assay type: functional
Malme-3M = test: Antiproliferative activity against human Malme-3M cells assessed as cell growth inhibition; assay type: functional
SNB-75 = test: Antiproliferative activity against human SNB-75 cells assessed as cell growth inhibition; assay type: functional
SN12C = test: Antiproliferative activity against human SN12C cells assessed as cell growth inhibition; assay type: functional
CAKI-1 = test: Antiproliferative activity against human CAKI-1 cells assessed as cell growth inhibition; assay type: functional
COLO 205 = test: Antiproliferative activity against human COLO 205 cells assessed as cell growth inhibition; assay type: functional
Hep 3B2 [7] = test: Antiproliferative activity against human Hep3B cells assessed as cell growth inhibition at 10 uM measured after 48 hrs by MTT assay relative to control; assay type: functional; settings: read-out: GI

T1 sequence (P07333 whole entry): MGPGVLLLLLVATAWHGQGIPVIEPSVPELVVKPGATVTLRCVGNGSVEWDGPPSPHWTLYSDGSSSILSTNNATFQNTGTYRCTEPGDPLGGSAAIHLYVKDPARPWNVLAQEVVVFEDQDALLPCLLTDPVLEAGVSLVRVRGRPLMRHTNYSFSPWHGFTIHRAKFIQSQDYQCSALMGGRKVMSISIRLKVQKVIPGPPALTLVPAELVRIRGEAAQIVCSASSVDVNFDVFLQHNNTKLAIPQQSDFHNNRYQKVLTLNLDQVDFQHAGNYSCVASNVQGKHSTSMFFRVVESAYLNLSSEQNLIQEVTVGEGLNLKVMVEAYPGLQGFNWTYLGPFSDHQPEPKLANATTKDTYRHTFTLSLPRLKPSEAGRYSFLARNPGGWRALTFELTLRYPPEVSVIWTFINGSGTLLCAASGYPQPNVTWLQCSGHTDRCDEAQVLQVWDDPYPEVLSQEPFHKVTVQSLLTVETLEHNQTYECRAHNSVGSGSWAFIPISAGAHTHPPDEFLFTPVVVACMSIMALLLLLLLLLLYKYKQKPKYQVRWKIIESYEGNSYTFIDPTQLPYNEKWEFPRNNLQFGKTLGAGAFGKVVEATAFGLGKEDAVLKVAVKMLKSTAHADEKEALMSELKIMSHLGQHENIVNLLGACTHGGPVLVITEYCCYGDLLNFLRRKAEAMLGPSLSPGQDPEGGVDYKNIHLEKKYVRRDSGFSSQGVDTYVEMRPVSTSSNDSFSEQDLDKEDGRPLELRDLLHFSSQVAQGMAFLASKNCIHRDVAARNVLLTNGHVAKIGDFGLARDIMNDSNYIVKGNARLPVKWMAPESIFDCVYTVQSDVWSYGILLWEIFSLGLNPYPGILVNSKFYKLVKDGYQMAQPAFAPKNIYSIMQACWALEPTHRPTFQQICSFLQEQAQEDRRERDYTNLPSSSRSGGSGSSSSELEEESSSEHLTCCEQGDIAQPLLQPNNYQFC
Chain of Voltage-gated inwardly rectifying potassium channel KCNH2 (Q12809 whole entry): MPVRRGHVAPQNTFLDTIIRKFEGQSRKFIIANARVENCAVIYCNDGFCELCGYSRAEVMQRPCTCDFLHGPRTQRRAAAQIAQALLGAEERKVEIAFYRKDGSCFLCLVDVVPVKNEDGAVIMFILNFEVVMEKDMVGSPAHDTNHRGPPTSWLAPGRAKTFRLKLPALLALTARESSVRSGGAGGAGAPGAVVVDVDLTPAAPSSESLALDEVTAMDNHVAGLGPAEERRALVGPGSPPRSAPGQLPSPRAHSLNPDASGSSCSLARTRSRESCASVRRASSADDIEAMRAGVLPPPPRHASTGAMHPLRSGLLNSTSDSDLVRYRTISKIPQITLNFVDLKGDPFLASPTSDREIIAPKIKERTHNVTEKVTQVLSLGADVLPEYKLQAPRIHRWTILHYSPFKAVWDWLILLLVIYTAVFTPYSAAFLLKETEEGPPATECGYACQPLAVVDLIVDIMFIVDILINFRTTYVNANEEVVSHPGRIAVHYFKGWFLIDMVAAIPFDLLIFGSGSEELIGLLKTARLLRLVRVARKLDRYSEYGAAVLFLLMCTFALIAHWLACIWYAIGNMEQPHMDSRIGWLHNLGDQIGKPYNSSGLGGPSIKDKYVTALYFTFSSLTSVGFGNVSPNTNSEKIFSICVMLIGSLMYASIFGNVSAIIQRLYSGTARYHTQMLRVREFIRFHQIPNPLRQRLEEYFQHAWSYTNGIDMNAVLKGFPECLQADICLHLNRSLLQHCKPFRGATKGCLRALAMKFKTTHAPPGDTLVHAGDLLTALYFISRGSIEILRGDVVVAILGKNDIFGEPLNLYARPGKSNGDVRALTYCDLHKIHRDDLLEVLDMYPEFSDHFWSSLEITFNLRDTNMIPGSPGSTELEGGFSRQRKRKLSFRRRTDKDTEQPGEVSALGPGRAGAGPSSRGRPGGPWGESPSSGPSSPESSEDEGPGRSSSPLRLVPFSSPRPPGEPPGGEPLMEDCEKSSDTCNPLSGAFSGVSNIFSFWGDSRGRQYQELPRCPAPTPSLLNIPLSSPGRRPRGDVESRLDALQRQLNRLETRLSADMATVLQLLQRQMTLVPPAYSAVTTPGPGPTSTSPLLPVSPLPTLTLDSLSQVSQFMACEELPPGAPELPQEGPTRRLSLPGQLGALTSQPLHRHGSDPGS

## CC(C)NC(=O)c1cc(-c2ccc(NC(=O)Nc3ccc(N4CCOCC4)c(C(F)(F)F)c3)cc2)nc2cccnc12
[1]; read-out: IC50
  IC50: 901 nM

## C=CC(=O)N1CCN(c2ccc(NC(=O)Nc3ccc(-c4cc(C(=O)NC)c5ncccc5n4)cc3)cc2C(F)(F)F)CC1
[1]; read-out: IC50
  IC50: 196 nM

## CNC(=O)c1cc(-c2ccc(NC(=O)Nc3ccc(N4CCOCC4)c(C(F)(F)F)c3)cc2)nc2cccnc12
[2]
  IC50 at 48 h: > 20000 nM
HepG2
  IC50: 1270 nM
[3]
  IC50 at 48 h: 11600 nM
[1]; read-out: IC50
  IC50: 134 nM
Hep 3B2 [4]
  IC50: 1890 nM

## CNC(=O)c1cc(-c2ccc(NC(=O)Nc3ccc(N4CCN(C)CC4)c(C(F)(F)F)c3)cc2)nc2cccnc12
[5]
  IC50: 563 nM
[6]
  IC50: 95900 nM

## CCN1CCN(c2ccc(NC(=O)Nc3ccc(-c4cc(C(=O)NC)c5ncccc5n4)cc3)cc2C(F)(F)F)CC1
NCI-H460
  GI50: 660 nM
  TGI: 2930 nM
LOX IMVI
  GI50: 670 nM
  TGI: 2660 nM
K562
  GI50: 660 nM
  TGI: 18000 nM
A549
  GI50: 470 nM
  TGI: 13000 nM
[2]
  IC50 at 48 h: 16700 nM
786-0
  GI50: 300 nM
  TGI: 580 nM
M14
  GI50: 400 nM
  TGI: 1050 nM
[5]
  IC50: 1350 nM
MOLT-4
  GI50: 690 nM
  TGI: 18000 nM
HCT-116
  TGI: 4830 nM
SF-539
  GI50: 2300 nM
  TGI: 4570 nM
RXF 393
  GI50: 500 nM
  TGI: 1660 nM
CCRF-CEM
  GI50: 460 nM
  TGI: 1270 nM
MDA-MB-468
  TGI: 5030 nM
OVCAR-4
  TGI: 5630 nM
MCF7
  GI50: 290 nM
  TGI: 610 nM
HCT-15
  GI50: 330 nM
  TGI: 700 nM
SW-620
  GI50: 310 nM
  TGI: 620 nM
MDA-MB-435
  GI50: 270 nM
  TGI: 560 nM
MDA-MB-231
  TGI: 5250 nM
SK-MEL-28
  GI50: 320 nM
  TGI: 580 nM
[3]
  IC50 at 48 h: 8800 nM
Hs-578T
  TGI: 6880 nM
BMDM
  IC50: 167 nM
SF-295
  TGI: 4470 nM
[6]
  IC50: 83400 nM
PC-3
  TGI: 6030 nM
DU-145
  TGI: 4900 nM
OVCAR-3
  TGI: 5060 nM
HT-29
  GI50: 530 nM
  TGI: 2110 nM
SR
  GI50: 670 nM
  TGI: 18000 nM
Malme-3M
  GI50: 290 nM
  TGI: 530 nM
SNB-75
  GI50: 840 nM
  TGI: 3820 nM
SN12C
  TGI: 5300 nM
CAKI-1
  TGI: 5600 nM
COLO 205
  TGI: 14200 nM

## CC(C)NC(=O)c1cc(-c2ccc(NC(=O)Nc3ccc(N4CCN(C)CC4)c(C(F)(F)F)c3)cc2)nc2cccnc12
[2]
  IC50 at 48 h: 18300 nM
HepG2
  IC50: 800 nM
[3]
  IC50 at 48 h: 8000 nM
[1]; read-out: IC50
  IC50: 797 nM
[1]; read-out: pIC50 (converted)
  IC50: 813 nM
Hep 3B2 [4]
  IC50: 1760 nM

## CNC(=O)c1cc(Oc2ccc(NC(=O)Nc3ccc(Cl)c(C(F)(F)F)c3)cc2)ccn1 [SORAFENIB]
NCI-H460
  GI50: 2510 nM
K562
  GI50: 3160 nM
A549
  GI50: 3160 nM
Hep 3B2 [7]
  inhibition of growth at 10 µM: 75%
786-0
  GI50: 3160 nM
M14
  GI50: 2000 nM
MOLT-4
  GI50: 3160 nM
  TGI: 100000 nM
RXF 393
  GI50: 3160 nM
CCRF-CEM
  GI50: 2000 nM
OVCAR-4
  GI50: 3160 nM
MCF7
  GI50: 2510 nM
  TGI: 7940 nM
HCT-15
  GI50: 2510 nM
SW-620
  GI50: 2510 nM
MDA-MB-231
  GI50: 1260 nM
SK-MEL-28
  GI50: 2510 nM
[3]
  IC50 at 48 h: 8300 nM
PC-3
  GI50: 2000 nM
DU-145
  GI50: 3160 nM
OVCAR-3
  GI50: 3160 nM
HT-29
  GI50: 2000 nM
SR
  GI50: 3160 nM
Malme-3M
  GI50: 2000 nM
SNB-75
  GI50: 3160 nM
SN12C
  GI50: 2510 nM
CAKI-1
  GI50: 3160 nM
COLO 205
  GI50: 2000 nM

## CC(C)NC(=O)c1cc(-c2ccc(NC(=O)Nc3ccc(F)c(C(F)(F)F)c3)cc2)nc2cccnc12
Hep 3B2 [7]
  inhibition of growth at 10 µM: 84.8%

## CC(C)NC(=O)c1cc(-c2ccc(NC(=O)Nc3ccc(N4CCNCC4)c(C(F)(F)F)c3)cc2)nc2cccnc12
[2]
  IC50 at 48 h: 18600 nM
HepG2
  IC50: 920 nM
[3]
  IC50 at 48 h: 9100 nM
[1]; read-out: IC50
  IC50: 852 nM
Hep 3B2 [4]
  IC50: 850 nM

## C=CC(=O)N1CCN(c2ccc(NC(=O)Nc3ccc(-c4cc(C(=O)NC(C)C)c5ncccc5n4)cc3)cc2C(F)(F)F)CC1
[2]
  IC50 at 48 h: 15800 nM
HepG2
  IC50: 870 nM
[3]
  IC50 at 48 h: 8100 nM
[1]; read-out: IC50
  IC50: 788 nM
Hep 3B2 [4]
  IC50: 810 nM

## CNC(=O)c1cc(-c2ccc(NC(=O)Nc3ccc(N4CCNCC4)c(C(F)(F)F)c3)cc2)nc2cccnc12
[1]; read-out: IC50
  IC50: 743 nM
